Structures are written as SMILES. Some results are limits rather than exact numbers.

T1 sequence (Q8N884 157-522): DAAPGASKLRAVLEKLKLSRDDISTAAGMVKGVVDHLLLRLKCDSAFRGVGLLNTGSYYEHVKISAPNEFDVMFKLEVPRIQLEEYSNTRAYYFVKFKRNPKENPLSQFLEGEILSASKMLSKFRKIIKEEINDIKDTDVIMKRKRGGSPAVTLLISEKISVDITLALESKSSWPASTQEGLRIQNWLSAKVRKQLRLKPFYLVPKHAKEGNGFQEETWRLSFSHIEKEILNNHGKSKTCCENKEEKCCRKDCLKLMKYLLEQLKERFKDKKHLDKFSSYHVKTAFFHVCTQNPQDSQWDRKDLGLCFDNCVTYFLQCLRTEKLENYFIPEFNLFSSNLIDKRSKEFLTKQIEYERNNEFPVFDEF

The test has as its target T1, Human cGAS amino acids 155-522 (Homo sapiens, UniProt Q8N884).
T1 construct: hexahistidine tag (N, cleaved yes); made in house; host or cells: E. coli BL21 DE3 Rosetta 2
In words: cGAS activity assay (DNA-activated cGAS, remaining ATP measured by Kinase-Glo Max luciferase assay). Type of test: biochemical. The following applies: 300 nM purified cGAS, 1 μM dsDNA, 250 μM ATP, 100 μM GTP, 37° C. for 1.25 hours. The protocol: IC50 values were determined as follows:
Human cGAS sequence encoding amino acids 155-522 was cloned into a pET (EMD Millipore) based expression plasmid. The resulting construct contained a tandem N-terminal hexahistidine tag, maltose binding protein fusion followed by a tobacco etch virus protease cleavable linker preceding cGAS amino acids 155-522.
Construct sequence: Amino acids 155-522, Human cGAS
Protein was expressed and purified from E. coli BL21 DE3 Rosetta 2 (EMD Millipore) cells using standard techniques. Cells were grown in 2× yeast extract tryptone medium and expression was initiated via the addition of isopropyl β-D-1-thiogalactopyranoside. Expression proceeded overnight at 18° C. Cells were harvested by centrifugation and subsequently lysed via sonication. Insoluble fraction was removed by centrifugation. Maltose binding protein (MBP) fusion proteins were purified on a dextrin sepharose column (GE Healthcare) and the MBP tag was removed using tobacco etch virus protease overnight during dialysis. Protein was further purified on a heparin column (GE Healthcare) and eluted using a NaCl gradient. Column fraction were pooled and further purified on a Superdex 75 gel filtration column (GE Healthcare). Protein was quantified using 280 nm absorbance. Protein was then flash frozen in liquid nitrogen and stored at −80° C. until use.
Potential antagonists were diluted in 100% dimethyl sulfoxide and added to the reaction. Final dimethyl sulfoxide concentration was 5%. The compounds were tested from 1 μM with either 3- or 4-fold serial dilutions down to 0.000051 or 0.000004 μM respectively.
Two complementary DNA oligos (IDT DNA) were annealed by slow cooling from 95° C. The resulting double stranded DNA was used to activate cGAS.
Reactions were performed at 37° C. for 1.25 hours. Reaction buffer: 20 mM Tris HCl pH 9, 100 mM NaCl, 5 mM MgCl2, 0.1 mg/ml bovine gamma globulin, 250 μM adenosine triphosphate, 100 μM guanosine triphosphate, 0.5 mM Tris(2-carboxyethyl)phosphine hydrochloride, 1 μM double stranded DNA and 300 nM purified cGAS protein.
Reactions were stopped and ATP levels in the reaction were measured using a luciferase based assay. Promega Kinase-Glo Max Assay. Luminescence was measured on a plate reader (Molecular Devices). Values were normalized to control wells lacking compound.
As usually defined, the IC50 is the point on the concentration scale where inhibition reaches its midpoint. The compound `COC(=O)[C@H](Cc1ccc(C#N)cc1)Nc1nc(NCc2nc3cc(F)ccc3[nH]2)nc(Nc2cccc(CN3CCN(C(C)=O)CC3)c2)n1` [TA1075, methyl (S)-2-((4-((3-((4-acetylpiperazin-1-yl)methyl)phenyl)amino)-6-(((5-fluoro-1H-benzo[d]imidazol-2-yl)methyl)amino)-1,3,5-triazin-2-yl)amino)-3-(4-cyanophenyl)propanoate] yielded a concentration for half-maximal inhibition (IC50) of over 250 µM. As for `COC(=O)[C@H](CC1CCCCC1)Nc1nc(NCc2nc3cc(F)ccc3[nH]2)nc(Nc2cccc(CN3CCN(C(=O)c4nccnc4O)CC3)c2)n1` [TA1072, methyl (S)-3-cyclohexyl-2-((4-(((5-fluoro-1H-benzo[d]imidazol-2-yl)methyl)amino)-6-((3-((4-(3-hydroxypyrazine-2-carbonyl)piperazin-1-yl)methyl)phenyl)amino)-1,3,5-triazin-2-yl)amino)propanoate], the figure is under 20 µM. As for `COC(=O)[C@H](Cc1ccc(C#N)cc1)Nc1nc(NCc2nc3cc(Cl)ccc3[nH]2)nc(Nc2cccc(CN3CCN(C(=O)c4cccc(-n5cccn5)c4)CC3)c2)n1` [TA1060, methyl (S)-2-((4-((3-((4-(3-(1H-pyrazol-1-yl)benzoyl)piperazin-1-yl)methyl)phenyl)amino)-6-(((5-chloro-1H-benzo[d]imidazol-2-yl)methyl)amino)-1,3,5-triazin-2-yl)amino)-3-(4-cyanophenyl)propanoate], the figure is over 250 µM; as for `COC(=O)[C@H](Cc1ccc(C#N)cc1)Nc1nc(NCc2ccccc2)nc(Nc2cccc(CN3CCNCC3)c2)n1` [TA1049, methyl (S)-2-((4-(benzylamino)-6-((3-(piperazin-1-ylmethyl)phenyl)amino)-1,3,5-triazin-2-yl)amino)-3-(4-cyanophenyl)propanoate], over 250 µM; as for `COCCOCCNC(=O)[C@H](Cc1ccc(C#N)cc1)Nc1nc(NCc2nc3cc(F)ccc3[nH]2)nc(Nc2cccc(CN3CCN(C(=O)c4nccnc4OC)CC3)c2)n1` [TA1029, (S)-3-(4-cyanophenyl)-2-((4-(((5-fluoro-1H-benzo[d]imidazol-2-yl)methyl)amino)-6-((3-((4-(3-methoxypyrazine-2-carbonyl)piperazin-1-yl)methyl)phenyl)amino)-1,3,5-triazin-2-yl)amino)-N-(2-(2-methoxyethoxy)ethyl)propanamide], over 250 µM. In the case of `COC(=O)[C@@H](Cc1ccc(C#N)cc1)Nc1nc(NCc2nc3cc(F)ccc3[nH]2)nc(Nc2cccc(CN3CCNCC3)c2)n1` [TA1019, methyl (R)-3-(4-cyanophenyl)-2-((4-(((5-fluoro-1H-benzo[d]imidazol-2-yl)methyl)amino)-6-((3-(piperazin-1-ylmethyl)phenyl)amino)-1,3,5-triazin-2-yl)amino)propanoate], the IC50 is over 250 µM.

`COC(=O)[C@H](Cc1ccc(C#N)cc1)Nc1nc(NCc2ccccc2)nc(Nc2cccc(CN3CCN(C(=O)c4nccnc4O)CC3)c2)n1` [TA1050, methyl (S)-2-((4-(benzylamino)-6-((3-((4-(3-hydroxypyrazine-2-carbonyl)piperazin-1-yl)methyl)phenyl)amino)-1,3,5-triazin-2-yl)amino)-3-(4-cyanophenyl)propanoate] came in with an IC50 of 20 to 250 µM. As for `COCCNC(=O)[C@H](Cc1ccc(C#N)cc1)Nc1nc(NCc2nc3cc(F)ccc3[nH]2)nc(Nc2cccc(CN3CCNCC3)c2)n1` [TA1017, (S)-3-(4-cyanophenyl)-2-((4-(((5-fluoro-1H-benzo[d]imidazol-2-yl)methyl)amino)-6-((3-(piperazin-1-ylmethyl)phenyl)amino)-1,3,5-triazin-2-yl)amino)-N-(2-methoxyethyl)propanamide], the figure is over 250 µM; as for `COC(=O)[C@H](Cc1ccc(C#N)cc1)Nc1nc(Nc2cccc(CN3CCNCC3)c2)nc(N(C)CCc2nc3ccc(OC)cc3[nH]2)n1` [TA1052, methyl (S)-3-(4-cyanophenyl)-2-((4-((2-(6-methoxy-1H-benzo[d]imidazol-2-yl)ethyl)(methyl)amino)-6-((3-(piperazin-d-ylmethyl)phenyl)amino)-1,3,5-triazin-2-yl)amino)propanoate], 20 to 250 µM.

For the origin of these results see patent US20210246122A1, “Triazine Compounds and Uses Thereof” (Aduro Biotech, Inc., priority 2018, published 2021).
